The source of these data is US6906097B2, “8-azaprostaglandin analogs as agents for lowering intraocular pressure” (Allergan, Inc., priority 2002, dated 2005).

Where only a bound is given, the exact number is not on record here.

One assay addresses T1, hTP (Homo sapiens, UniProt P21731).
T1 construct: expressed in transfected cells
T1 sequence (P21731 1-343): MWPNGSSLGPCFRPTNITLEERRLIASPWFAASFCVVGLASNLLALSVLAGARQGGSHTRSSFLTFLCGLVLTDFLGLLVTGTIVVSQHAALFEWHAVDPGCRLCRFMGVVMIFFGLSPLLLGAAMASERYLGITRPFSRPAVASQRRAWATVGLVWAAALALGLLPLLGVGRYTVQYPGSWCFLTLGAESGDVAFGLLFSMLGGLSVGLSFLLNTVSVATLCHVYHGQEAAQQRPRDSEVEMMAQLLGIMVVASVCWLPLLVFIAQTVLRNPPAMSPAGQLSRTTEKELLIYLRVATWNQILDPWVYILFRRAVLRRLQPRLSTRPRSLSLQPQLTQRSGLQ
The experiment in a line: Functional data, human recombinant TP receptor stable transfectants. The format is cell-based. The method, then:
(§1) Human Recombinant EP1, EP2, EP3, EP4, FP, TP, IP and DP Receptors: Stable Transfectants
(§2) Plasmids encoding the human EP1, EP2, EP3, EP4, FP, TP, IP and DP receptors were prepared by cloning the respective coding sequences into the eukaryotic expression vector pCEP4 (Invitrogen). The pCEP4 vector contains an Epstein Barr virus (EBV) origin of replication, which permits episomal replication in primate cell lines expressing EBV nuclear antigen (EBNA-1). It also contains a hygromycin resistance gene that is used for eukaryotic selection. The cells employed for stable transfection were human embryonic kidney cells (HEK-293) that were transfected with and express the EBNA-1 protein. These HEK-293-EBNA cells (Invitrogen) were grown in medium containing Geneticin (G418) to maintain expression of the EBNA-1 protein. HEK-293 cells were grown in DMEM with 10% fetal bovine serum (FBS), 250 μg ml^−1 G418 (Life Technologies) and 200 μg ml^−1 gentamicin or penicillin/streptomycin.
For transfection, the cells were grown to 50-60% confluency on 10 cm plates. The plasmid pCEP4 incorporating cDNA inserts for the respective human prostanoid receptor (20 μg) was added to 500 μl of 250 mM CaCl2. HEPES buffered saline×2 (2×HBS, 280 mM NaCl, 20 mM HEPES acid, 1.5 mM Na2 HPO4, pH 7.05-7.12) was then added dropwise to a total of 500 μl, with continuous vortexing at room temperature. After 30 min, 9 ml DMEM were added to the mixture. The DNA/DMEM/calcium phosphate mixture was then added to the cells, which had been previously rinsed with 10 ml PBS. The cells were then incubated for 5 hr at 37° C. in humidified 95% air/5% CO2. The calcium phosphate solution was then removed and the cells were treated with 10% glycerol in DMEM for 2 min. The glycerol solution was then replaced by DMEM with 10% FBS. The cells were incubated overnight and the medium was replaced by DMEM/10% FBS containing 250 μg ml^−1 G418 and penicillin/streptomycin. The following day hygromycin B was added to a final concentration of 200 μg ml^−1.
Ten days after transfection, hygromycin B resistant clones were individually selected and transferred to a separate well on a 24 well plate. At confluence each clone was transferred to one well of a 6 well plate, and then expanded in a 10 cm dish. Cells were maintained under continuous hygromycin selection until use.

For another assay, the target named is T2, hEP1 (Homo sapiens, UniProt P34995).
T2 construct: expressed in transfected cells
T2 sequence (P34995 1-402): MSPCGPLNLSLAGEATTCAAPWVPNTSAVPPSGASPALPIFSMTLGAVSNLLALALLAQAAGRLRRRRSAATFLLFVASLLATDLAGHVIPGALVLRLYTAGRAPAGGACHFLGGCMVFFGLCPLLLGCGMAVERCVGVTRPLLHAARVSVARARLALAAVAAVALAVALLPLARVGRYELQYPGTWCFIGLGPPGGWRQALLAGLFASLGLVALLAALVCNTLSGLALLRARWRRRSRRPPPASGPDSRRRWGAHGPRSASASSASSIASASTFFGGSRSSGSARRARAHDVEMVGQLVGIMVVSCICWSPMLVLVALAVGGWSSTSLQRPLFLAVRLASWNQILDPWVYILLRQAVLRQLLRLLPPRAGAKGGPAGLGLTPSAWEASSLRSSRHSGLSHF
Briefly: Radioligand binding, hEP1. Conditions: [3H]PGE2 competition. The method, then:
as §1
as §2, with “HEK-293 cells were grown in DMEM with 10% fetal bovine serum (FBS), 250 μg ml^−1 G418 (Life Technologies) and 200 μg ml^−1 gentamicin or penicillin/streptomycin.” left out
Radioligand binding studies on plasma membrane fractions prepared for cells stably transfected with the cat or human receptor were performed as follows. […] The pellet was then resuspended in TME buffer to provide a final protein concentration of 1 mg/ml, as determined by Bio-Rad assay. […]
The binding of [^3H](N) PGE2 (specific activity 165 Ci/mmol) was determined in duplicate and in at least 3 separate experiments. […] Competition studies were performed using a final concentration of 2.5 or 5 nM [^3H](N) PGE2 and non-specific binding was determined with 10^−5 M unlabelled PGE2.

On to `O=C(O)CCCCCCN1C(=O)CC[C@@H]1CCC(O)Cc1cccc(Cl)c1` (stereo partly drawn) [Example 1, 7-[2S-[3R-Hydroxy-4-(chloro-phenyl)-butyl]-5-oxo-pyrrolidin-1-yl]-heptanoic acid], for which the EC50 at hTP is > 10 µM. Also, the IC50 at hEP1 stood at 5.8 µM.
